Legend:
Format in all cases: cell-based
Design in all cases: unit not given here
[1] = tested on: human TLR8 mutant sequence comprising a deletion in the second leucine-rich repeat; assay: TLR8 cellular NFκB-luc reporter assay, mutant TLR8 with deletion in the second leucine-rich repeat; settings: lowest effective concentration
Method: (§1) The ability of compounds to activate human TLR7 and/or TLR8 was assessed in a cellular reporter assay using HEK293 cells transiently transfected with a TLR7 or TLR8 expression vector and NFκB-luc reporter construct. In one instance the TLR expression construct expresses the respective wild type sequence or a mutant sequence comprising a deletion in the second leucine-rich repeat of the TLR.
(§2) Briefly, HEK293 cells were grown in culture medium (DMEM supplemented with 10% FCS and 2 mM Glutamine). For transfection of cells in 10 cm dishes, cells were detached with Trypsin-EDTA, transfected with a mix of CMV-TLR7 or TLR8 plasmid (750 ng), NFκB-luc plasmid (375 ng) and a transfection reagent and incubated for 48 hours at 37° C. in a humidified 5% CO2 atmosphere. […] Thirty microliters of cells were then dispensed into each well in 384-well plates, where 10 μL of compound in 4% DMSO was already present. Following 6 hours incubation at 37° C., 5% CO2, the luciferase activity was determined by adding 15 μl of Steady Lite Plus substrate (Perkin Elmer) to each well and readout performed on a ViewLux ultraHTS microplate imager (Perkin Elmer). Dose response curves were generated from measurements performed in quadruplicates.

[2] = tested on: human TLR7 mutant sequence comprising a deletion in the second leucine-rich repeat; assay: TLR7 cellular NFκB-luc reporter assay, mutant TLR7 with deletion in the second leucine-rich repeat; settings: lowest effective concentration
Method: as §1, §2

[3] = target: T1, human TLR7 (wild type sequence) (Homo sapiens, UniProt Q9NYK1); assay: TLR7 cellular NFκB-luc reporter assay, wild type TLR7; settings: lowest effective concentration, wild type TLR7
T1 construct: expressed in transfected cells; host or cells: HEK293
T1 sequence (Q9NYK1 27-1049): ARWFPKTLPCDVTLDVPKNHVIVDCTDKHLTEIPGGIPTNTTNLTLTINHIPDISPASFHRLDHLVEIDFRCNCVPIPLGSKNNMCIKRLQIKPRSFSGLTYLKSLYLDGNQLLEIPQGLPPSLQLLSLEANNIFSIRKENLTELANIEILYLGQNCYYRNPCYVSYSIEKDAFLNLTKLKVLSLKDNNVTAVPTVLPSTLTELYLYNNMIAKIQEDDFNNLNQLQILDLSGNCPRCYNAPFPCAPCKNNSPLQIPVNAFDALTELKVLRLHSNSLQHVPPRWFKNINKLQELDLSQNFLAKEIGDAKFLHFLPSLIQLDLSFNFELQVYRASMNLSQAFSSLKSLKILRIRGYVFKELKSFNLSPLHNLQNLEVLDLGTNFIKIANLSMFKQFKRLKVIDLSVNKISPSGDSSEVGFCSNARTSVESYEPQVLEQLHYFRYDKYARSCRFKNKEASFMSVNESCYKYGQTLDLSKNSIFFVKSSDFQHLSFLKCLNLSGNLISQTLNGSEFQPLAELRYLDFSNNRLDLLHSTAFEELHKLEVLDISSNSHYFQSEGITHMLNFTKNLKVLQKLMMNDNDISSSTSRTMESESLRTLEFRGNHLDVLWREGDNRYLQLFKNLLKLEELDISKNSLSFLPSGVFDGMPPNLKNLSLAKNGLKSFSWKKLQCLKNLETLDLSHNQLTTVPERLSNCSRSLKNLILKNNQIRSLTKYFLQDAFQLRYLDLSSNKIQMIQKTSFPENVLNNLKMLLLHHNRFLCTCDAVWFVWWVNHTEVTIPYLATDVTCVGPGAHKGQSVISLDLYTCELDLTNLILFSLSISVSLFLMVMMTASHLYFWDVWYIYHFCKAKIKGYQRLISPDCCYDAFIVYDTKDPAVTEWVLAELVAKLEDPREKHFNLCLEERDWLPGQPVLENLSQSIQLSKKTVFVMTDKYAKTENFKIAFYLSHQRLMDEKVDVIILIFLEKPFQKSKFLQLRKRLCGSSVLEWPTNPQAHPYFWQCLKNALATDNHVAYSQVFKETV
Method in brief: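 Transfected HEK293 cells expressing wild type or second leucine-rich repeat-deleted TLR7 or TLR8 together with an NFκB-luciferase reporter are treated with compound for 6 hours. Activation is measured by luciferase, and LEC is the lowest concentration exceeding the assay standard deviation at least two fold.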

SMILES	TLR8-dIRR2_LEC [1]	TLR7-dIRR2_LEC [2]	TLR7-wt_LEC [3]
CCCC[C@@H](CCO)Nc1nc(N)ncc1OCCCc1ccc(OC)cc1 [Compound 225]	0.129	2.180	0.385
CCC[C@@H](CCO)Nc1nc(N)ncc1OCCCc1ccc(OC)cc1 [Compound 226]	0.036	1.050	0.274
CCC[C@@H](CCO)Nc1nc(N)ncc1OCc1cccc(C)n1 [Compound 227]	0.030	0.717	0.170
CCCC[C@@H](CO)Nc1nc(N)ncc1OCCCc1ccc2c(c1)OCO2 [Compound 228]	0.112	1.510	1.410
CCCCNc1nc(N)ncc1OCCN(Cc1ccccc1)C(=O)OCC [Compound 230]	0.138	3.470	0.593
CCC[C@@H](CCO)Nc1nc(N)ncc1OCc1nccc2ccccc12 [Compound 231]	<0.001	0.052	0.001
CCCCNc1nc(N)ncc1OCCNC(=O)OCC [Compound 232]	0.110	1.680	0.967
CCCCNc1nc(N)ncc1OCCOC(C)C [Compound 234]	0.464	1.170	1.850
CCCCNc1nc(N)ncc1OCC1CCOC1 (stereo not drawn) [Compound 235]	1.890	10.410	>25
CCCCNc1nc(N)ncc1OCc1ccc2cccnc2n1 [Compound 236]	0.031	0.333	0.241
CCCC[C@@H](CCO)Nc1nc(N)ncc1OCc1cc(C)n(C)n1 [Compound 237]	0.051	1.830	0.156
CCC[C@@H](CCO)Nc1nc(N)ncc1OCCCc1ccc2c(c1)OCO2 [Compound 238]	0.091	1.920	0.234
CCC[C@@H](CO)Nc1nc(N)ncc1OCc1ccccn1 [Compound 239]	0.145	0.247	0.464
CCCC[C@@H](CCO)Nc1nc(N)ncc1OCc1nn(C)c2ccccc12 [Compound 240]	0.005	0.442	0.008
CCCC[C@@H](CCO)Nc1nc(N)ncc1OCc1ncccc1OC [Compound 241]	0.004	0.304	0.008
CCCC[C@@H](CCO)Nc1nc(N)ncc1OCc1ncc(C)c(O)c1C [Compound 242]	0.006	3.010	5.400
CCCC[C@@H](CO)Nc1nc(N)ncc1OCc1ccccn1 [Compound 243]	0.190	0.103	0.343
CCCC[C@@H](CCO)Nc1nc(N)ncc1OCCCc1ccc2c(c1)OCO2 [Compound 244]	0.104	1.400	0.202
CCCC[C@@H](CCO)Nc1nc(N)ncc1OCc1nccc(OC)c1OC [Compound 245]	0.011	0.507	0.040
CCC[C@@H](CCO)Nc1nc(N)ncc1OCc1cc(C)n(C)n1 [Compound 246]	0.048	1.150	0.157
CCCC[C@@H](CCO)Nc1nc(N)ncc1OCc1cncn1[C@@H](C)c1ccccc1 [Compound 247]	3.200	8.240	12.390

SMILES	TLR8-dIRR2_LEC [1]	TLR7-dIRR2_LEC [2]	TLR7-wt_LEC [3]
C#CCOc1cnc(N)nc1NCCCC [Compound 248]	0.529	0.654	2.120
CCC[C@@H](CCO)Nc1nc(N)ncc1OCc1cc2ccccc2cn1 [Compound 249]	0.036	0.172	0.039
CCCC[C@@H](CCOC(=O)C(C)C)Nc1nc(N)ncc1OC [Compound 250]	0.580	3.250	0.724
CCC[C@H](C)Nc1nc(N)ncc1OCc1cn2ccccc2n1 [Compound 251]	0.087	0.556	0.164
CCC[C@@H](C)Nc1nc(N)ncc1OCc1nccc(OC)c1OC [Compound 252]	1.310	>25	4.020
CCC[C@@H](C)Nc1nc(N)ncc1OCc1cn2ccccc2n1 [Compound 253]	6.230	>25	12.760
CCC[C@@H](CO)Nc1nc(N)ncc1OCc1cc(C)nn1C [Compound 254]	0.364	0.467	1.770
CCCC[C@@H](CO)Nc1nc(N)ncc1OCc1cc(C)n(C)n1 [Compound 255]	0.315	0.515	0.552
CCC[C@@H](CO)Nc1nc(N)ncc1OCc1cccc(C(N)=O)n1 [Compound 256]	0.039	0.100	1.630
CCC[C@@H](CO)Nc1nc(N)ncc1OCc1cc(C)n(C)n1 [Compound 257]	0.304	0.444	0.697
CCC[C@@H](CO)Nc1nc(N)ncc1OCc1cc2ccccc2cn1 [Compound 258]	0.060	0.153	0.074
CCCC[C@@H](CO)Nc1nc(N)ncc1OCc1cccc(C(=O)O)n1 [Compound 259]	1.250	3.150	6.980
CCC[C@@H](CO)Nc1nc(N)ncc1OCc1cccc(C(=O)O)n1 [Compound 260]	>8.14	2.830	4.850
CCCCNc1nc(N)ncc1O[C@@H](C)c1ccccn1 [Compound 262]	0.363	0.168	0.658
CCC[C@H](C)Nc1nc(N)ncc1OCc1nccc(OC)c1OC [Compound 263]	0.056	0.159	0.049
CCC[C@@H](CCO)Nc1nc(N)ncc1OCc1cc(C)nn1C [Compound 264]	0.087	0.489	0.215
CCCC(C)Nc1nc(N)ncc1OCCCc1ccc2c(c1)OCO2 (stereo not drawn) [Compound 265]	0.591	3.700	0.752
CCCC[C@@H](CCO)Nc1nc(N)ncc1OCCOC [Compound 266]	0.557	1.890	1.070
CCCC(C)Nc1nc(N)ncc1OCCOC (stereo not drawn) [Compound 267]	1.710	0.719	4.880
CCC[C@@H](CCO)Nc1nc(N)ncc1OCCOC [Compound 268]	1.170	1.800	2.100

From US11541050B2, “Pyrimidine derivatives for the treatment of viral infections” (JANSSEN SCIENCES IRELAND UC, priority 2011, dated 2023)
